In paper PMC2363230, “Human tumour-associated cell adhesion protein MN/CA IX: identification of M75 epitope and of the region mediating cell adhesion” (British Journal of Cancer, 2000):

Each substance was assayed on adhesion of CGL1 cells to MN/CA IX (assay: Inhibition of cell adhesion to MN/CA IX dots by oligopeptides added to the media with the cell suspension (Figure 4B)). Conditions: nonapeptides 7 + 2 aa, C-terminal alanine amide, absorbance at 630 nm of stained attached cells.
Type: cell-based, human

| Substance | activity in cell adhesion inhibition of phage display-selected peptides (in words) |
| --- | --- |
| 1: AKKMKRRKA, selected from phage display library on peptide F, eluted with M75 [compound 1] | less active |
| 2: AITFNAQYA, selected from phage display library on peptide F, eluted with M75 [compound 2] | highest activity |
| 3: ASASAPVSA, selected from phage display library on peptide F, eluted with M75 [compound 3] | marginally posi- tive only in ELISA |

These substances were tested against T1, M75 epitope of immobilized GST-MN (Homo sapiens, UniProt Q16790) (assay: Competition ELISA, peptides binding to the epitope of immobilized GST-MN (Figure 4A)). Conditions: nonapeptides 7 + 2 aa, C-terminal alanine amide.
T1 construct: made in house; host or cells: bacteria

| Substance | activity in competition ELISA of phage display-selected peptides (in words) |
| --- | --- |
| 1: AKKMKRRKA, selected from phage display library on peptide F, eluted with M75 [compound 1] | less active |
| 2: AITFNAQYA, selected from phage display library on peptide F, eluted with M75 [compound 2] | highest activity |
| 3: ASASAPVSA, selected from phage display library on peptide F, eluted with M75 [compound 3] | marginally posi- tive |

What follows are substances tested on mAb M75 (assay: Competition ELISA with mAb M75 (antigen competing for M75, Figure 3)). Conditions: GST-MN 10 ng ml-1 adsorbed; mAb M75 ascites fluid final dilution 10-6; antibody + antigen mixtures adsorbed 1.5 h; peroxidase/OPD read-out.
Type: binding

| Substance | 50% inhibition concentration in competition ELISA with M75 [ng/mL] |
| --- | --- |
| D: GGSSGEDDPLGEEDLPSEEDSPC (aa 51-72 of the PG region) | 1 |
| F: EDPPGEEDLPGEEDLPGEEDLPEVC (aa 75-98 of the PG region) | 1 |

Same assay, conditions: GST-MN adsorbed; mAb M75 ascites 10-6

| Substance | serological activity in competition ELISA with M75 (in words) |
| --- | --- |
| EVKPKSEEEGSLKLE [Peptide G] | inactive |
| N: oligopeptide 7 + 2 aa APGEEDLPA | minimum serologically active sequence |

Same assay, conditions: compared with peptides D and F (50% inhibition at 1 ng ml-1)

| Substance | fold less active than peptides D and F in competition ELISA [x] |
| --- | --- |
| GEEDLPSEEDSPREEDPPGEEDLPGEC [Peptide E] | 1000 |

Same assay, conditions: peptide at 100 g ml-1 (so in the source); C-terminal amide

| Substance | competition in ELISA with M75 at 100 g ml-1 |
| --- | --- |
| ADLPGEEA [6 + 2 aa permutation] | negative |
| ADLPGEEDA [oligopeptide 7 + 2 aa] | negative |
| AEDLPGEA [6 + 2 aa permutation] | negative |
| AEDLPGEEA [oligopeptide 7 + 2 aa] | negative |
| AEEDLPGA [6 + 2 aa permutation] | negative |
| AEEDLPGEA [oligopeptide 7 + 2 aa] | negative |
| AGEEDLPA [6 + 2 aa permutation] | negative |
| ALPGEEDA [6 + 2 aa permutation] | negative |
| ALPGEEDLA [oligopeptide 7 + 2 aa] | negative |
| APGEEDLA [6 + 2 aa permutation] | negative |
